The record followed here is US20140296338A1, “PROPHYLACTIC AND/OR THERAPEUTIC AGENT FOR CARDIOVASCULAR COMPLICATIONS OF DIABETES” (priority 2011, published 2014).

The test system of the experiment is dermal fibroblast. In words: Influence of fatty acids on intracellular neutral lipid content of dermal fibroblast from diabetic patient, enzyme assay. The format is cell-based, human. Details: Intracellular TG-decreasing activity: scale not given here. As to conditions: for Intracellular TG-decreasing activity: based on part of the results in FIG. 4 and FIG. 5; for Activity to decrease intracellular TG: comparison of medium-chain fatty acids (FIG. 5); for Intracellular TG (neutral lipid) content: fatty acid added at 50 and 500 μM, cells collected 2 days later, versus no fatty acid (FIG. 4). From the text:
With the consent of the diabetic patient in Example 3, part of dermal tissue was harvested and was then subjected to primary culture (culture medium: DMEM/10% FBS) by Explant method, followed by repeated subculture to give a cell line. The resulting dermal fibroblast was examined for the influence of various fatty acids on an intracellular neutral lipid content. Specifically, the dermal specimen harvested from the patient was subjected to an in vitro enzyme assay using various fatty acids to measure an intracellular neutral lipid content. The enzyme assay was performed using a triglyceride quantification kit (manufacturer: BioVision, Inc., product code: K622-100). […] To the patient's cells, the various fatty acids were added, and 2 days later, the cells were collected. In the figures, (-) is a specimen to which no fatty acid was added (cultured as a control in DMEM/10% FBS alone). C16:0 is palmitic acid, C18:1 is oleic acid, C18:2 is linoleic acid, C20:4 is arachidonic acid, C20:5 is eicosapentaenoic acid (EPA), C7:0 is heptanoic acid, C8:0 is caprylic acid, and C10:0 is capric acid.

Turning to `CC(C)CCCCCCC(=O)O` [8-methylnonanoic acid], the “Intracellular TG-decreasing activity” value is given as 100 and the “Activity to decrease intracellular TG” value is listed as “great activity to decrease TG”.
As for `CCCCCCC(=O)O` [heptanoic acid, reference compound], the “Intracellular TG-decreasing activity” value was 0 and the “Intracellular TG (neutral lipid) content” value is “increased”.
In the case of `CCCCCCCCCC(=O)O` [capric acid], the “Intracellular TG-decreasing activity” value stood at 100, the “Activity to decrease intracellular TG” value is “great activity to decrease TG” and the “Intracellular TG (neutral lipid) content” value is given as “decreased”.
For the compound `CCCCCCCC(=O)O` [caprylic acid], the “Intracellular TG-decreasing activity” value is given as 5.
